From publication PMC6099232, “High V‐PPase activity is beneficial under high salt loads, but detrimental without salinity” (The New Phytologist, 2018) come the findings set out here.

The term Km denotes the substrate concentration at which the rate is half of its maximum.

One series concerns the target T1, IPP1 (Saccharomyces cerevisiae, UniProt P00817).
T1 construct: soluble PPase, cDNA under ubiquitin promoter in pCambia2200, transiently overexpressed in N. benthamiana leaves
In words: PPi hydrolysis activity of leaf protein extract. In kind it is biochemical. The following applies: activity compared with control.

The next series addresses T2, NbVHP2 (Nicotiana benthamiana, UniProt A0A238MN04).
T2 construct: gene NbPPA1.1; full-length cDNA, untagged, ubiquitin promoter in pCambia2200 with separate free eGFP; transient overexpression in N. benthamiana mesophyll; vacuoles also hold endogenous NbVHP1/2
T2 sequence (A0A238MN04 1-766): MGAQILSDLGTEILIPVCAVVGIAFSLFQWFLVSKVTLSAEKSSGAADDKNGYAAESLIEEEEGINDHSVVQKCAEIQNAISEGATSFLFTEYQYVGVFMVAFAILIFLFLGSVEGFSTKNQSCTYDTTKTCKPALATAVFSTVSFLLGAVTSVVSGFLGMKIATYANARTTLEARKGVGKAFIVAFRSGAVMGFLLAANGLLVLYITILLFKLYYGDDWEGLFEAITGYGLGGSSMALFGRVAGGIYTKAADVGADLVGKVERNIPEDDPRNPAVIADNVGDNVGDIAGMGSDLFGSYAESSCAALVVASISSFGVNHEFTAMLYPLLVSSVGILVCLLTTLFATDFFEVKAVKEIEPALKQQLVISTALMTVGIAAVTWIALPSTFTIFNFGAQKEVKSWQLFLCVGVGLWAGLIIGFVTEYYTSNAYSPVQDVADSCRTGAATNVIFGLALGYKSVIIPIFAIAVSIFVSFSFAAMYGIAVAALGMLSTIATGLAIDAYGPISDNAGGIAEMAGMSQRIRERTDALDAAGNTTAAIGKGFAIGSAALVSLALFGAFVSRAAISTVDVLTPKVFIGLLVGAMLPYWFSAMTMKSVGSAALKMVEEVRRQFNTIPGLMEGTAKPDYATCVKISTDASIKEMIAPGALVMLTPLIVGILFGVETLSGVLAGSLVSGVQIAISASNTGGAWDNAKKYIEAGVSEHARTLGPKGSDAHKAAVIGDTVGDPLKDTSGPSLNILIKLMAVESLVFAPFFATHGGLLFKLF
In words: whole-vacuole patch clamp, PPi-induced proton pump current. The note with it: 150 μM PPi, 0 mV; 5 mM MgCl2, 100 mM K-gluconate, 0.1 mM CaCl2, pH 7.5; endogenous NbVHP background. In kind it is biochemical. (In general: In patch-clamp work, channel activity is measured electrically.)

Substrate in series [1]: O=P(O)(O)OP(=O)(O)O
The description is as above. In kind it is biochemical, Nicotiana benthamiana. The following applies: 0 mV, cytosolic pH 7.5, global fit of luminal pH 7.5 and 5.5, 5 mM MgCl2, 100 mM K-gluconate, 0.1 mM CaCl2, endogenous NbVHP background.

Substrate in series [2]: O=P(O)(O)OP(=O)(O)O
Described as above. In kind it is biochemical, Arabidopsis thaliana. The following applies: 0 mV, 5 mM MgCl2, 100 mM K-gluconate, 0.1 mM CaCl2, pH 7.5, about one-third of current from endogenous NbVHP1/2.

T1 sequence (P00817 2-287): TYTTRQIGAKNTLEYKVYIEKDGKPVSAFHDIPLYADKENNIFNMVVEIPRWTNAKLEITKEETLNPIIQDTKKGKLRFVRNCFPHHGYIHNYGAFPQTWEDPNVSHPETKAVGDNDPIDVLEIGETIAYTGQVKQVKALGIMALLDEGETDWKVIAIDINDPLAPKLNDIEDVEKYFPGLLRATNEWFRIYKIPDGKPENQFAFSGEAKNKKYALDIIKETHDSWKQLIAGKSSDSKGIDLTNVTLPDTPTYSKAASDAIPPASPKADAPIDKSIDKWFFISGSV

Take `O=P(O)(O)OP(=O)(O)O` [PPi, pyrophosphate]: the “PPi hydrolysis activity of leaf protein extract” value on IPP1 was “IPP1‐transformed N. benthamiana leaves exhibited a hydrolytic PPi activity”. The “whole-vacuole patch clamp, PPi-induced proton pump current” value on NbVHP2 is on record as “almost four times higher in vacuoles from NbVHP1‐ or NbVHP2‐overexpressing mesophyll cells”.

B1: NbVHP1 (Nicotiana benthamiana) (protein)
chain: MGAALLPDLGTEIVIPVCAVIGIVFSLVQWYIVSNVKLTPESSSPSNNGKNGYGDYLIEEEEGINDQNVVVKCAEIQNAISEGATSFLFTEYQYVGIFMIAFAILIFLFLGSVEGFSTKSQPCTYNKEKLCKPALATAIFSTVSFLLGAITSVVSGFLGMKVATYANARTTLEARKGVGKAFIVAFRSGAVMGFLLAANGLLVLYIAINLFKLYYGDDWEGLFEAITGYGLGGSSMALFGRVGGGIYTKAADVGADLVGKVERNIPEDDPRNPAVIADNVGDNVGDIAGMGSDLFGSYAEASCAALVVASISSFGINHEFTAMLYPLLISSMGVLICLITTLFATDFFEIKAVKEIEPALKNQLIISTALMTVGIAIVTWTCLPSSFTIFNFGAQKVVKNWQLFLCVAVGLWAGLIIGFVTEYYTSNTYSPVQDVADSCRTGAATNVIFGLALGYKSVIIPIFAIAIAIFVSFSFAAMYGIAVAALGMLSTIATGLAIDAYGPISDNAGGIAEMAGMSHRIRERTDALDAAGNTTAAIGKGFAIGSAALVSLALFGAFVSRAAITTVDVLTPQVFIGLIVGAMLPYWFSAMTMKSVGSAALKMVEEVRRQFNTIPGLMEGTAKPDYATCVKISTDASIKEMIPPGALVMLTPLIVGIFFGVETLSGVLAGALVSGVQIAISASNTGGAWDNAKKYIEAGASEHARTLGPKGSEPHKAAVIGDTIGDPLKDTSGPSLNILIKLMAVESLVFAPFFATHGGLLFKIF
notes: full-length cDNA, untagged, ubiquitin promoter in pCambia2200 with separate free eGFP; transient overexpression in N. benthamiana mesophyll; vacuoles also hold endogenous NbVHP1/2; homodimer of c; 80 kDa polypeptide
As to B1, the Km in series [1] was 65 ± 9 µM.

B2: AtVHP1 (Arabidopsis thaliana) (protein)
chain: MVAPALLPELWTEILVPICAVIGIAFSLFQWYVVSRVKLTSDLGASSSGGANNGKNGYGDYLIEEEEGVNDQSVVAKCAEIQTAISEGATSFLFTEYKYVGVFMIFFAAVIFVFLGSVEGFSTDNKPCTYDTTRTCKPALATAAFSTIAFVLGAVTSVLSGFLGMKIATYANARTTLEARKGVGKAFIVAFRSGAVMGFLLAASGLLVLYITINVFKIYYGDDWEGLFEAITGYGLGGSSMALFGRVGGGIYTKAADVGADLVGKIERNIPEDDPRNPAVIADNVGDNVGDIAGMGSDLFGSYAEASCAALVVASISSFGINHDFTAMCYPLLISSMGILVCLITTLFATDFFEIKLVKEIEPALKNQLIISTVIMTVGIAIVSWVGLPTSFTIFNFGTQKVVKNWQLFLCVCVGLWAGLIIGFVTEYYTSNAYSPVQDVADSCRTGAATNVIFGLALGYKSVIIPIFAIAISIFVSFSFAAMYGVAVAALGMLSTIATGLAIDAYGPISDNAGGIAEMAGMSHRIRERTDALDAAGNTTAAIGKGFAIGSAALVSLALFGAFVSRAGIHTVDVLTPKVIIGLLVGAMLPYWFSAMTMKSVGSAALKMVEEVRRQFNTIPGLMEGTAKPDYATCVKISTDASIKEMIPPGCLVMLTPLIVGFFFGVETLSGVLAGSLVSGVQIAISASNTGGAWDNAKKYIEAGVSEHAKSLGPKGSEPHKAAVIGDTIGDPLKDTSGPSLNILIKLMAVESLVFAPFFATHGGILFKYF
notes: untagged cDNA, ubiquitin promoter in pCambia2200 with separate free eGFP; transient overexpression in N. benthamiana mesophyll; about one-third of the current from endogenous NbVHP1/2
As for B2, the Michaelis-Menten constant (Km) in series [2] stood at 75 ± 11 µM.
